Test results published in article PMC1892040 (PLoS Medicine, 2007).
Like-named read-outs stand apart in the source and are kept apart here.

Legend:
S. mansoni TGR [1] = biological target: T1, S. mansoni TGR (Schistosoma mansoni, UniProt Q962Y6); test: biochemical; details: read-out: Activity of Enzyme (% of Uninhibited Enzyme)
T1 sequence (Q962Y6 1-598): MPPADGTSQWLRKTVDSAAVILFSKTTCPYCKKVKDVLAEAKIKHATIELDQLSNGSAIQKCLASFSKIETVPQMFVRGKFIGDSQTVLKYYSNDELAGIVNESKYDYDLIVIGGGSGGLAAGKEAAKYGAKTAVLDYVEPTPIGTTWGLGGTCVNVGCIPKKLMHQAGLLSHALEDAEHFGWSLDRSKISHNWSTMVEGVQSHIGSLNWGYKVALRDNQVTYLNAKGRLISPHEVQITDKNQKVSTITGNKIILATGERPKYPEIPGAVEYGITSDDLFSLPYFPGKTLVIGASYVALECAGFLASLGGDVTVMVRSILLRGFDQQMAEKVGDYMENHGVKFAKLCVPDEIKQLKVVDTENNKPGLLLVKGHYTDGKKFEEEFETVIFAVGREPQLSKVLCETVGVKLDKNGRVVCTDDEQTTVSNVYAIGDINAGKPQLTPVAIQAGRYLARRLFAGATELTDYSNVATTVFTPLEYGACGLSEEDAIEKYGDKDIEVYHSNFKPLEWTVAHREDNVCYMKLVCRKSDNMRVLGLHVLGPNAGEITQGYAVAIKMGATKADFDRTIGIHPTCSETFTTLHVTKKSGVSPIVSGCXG
Description: (§1) Assays were performed at 25 °C in 0.1 M potassium phosphate (pH 7.4), 10 mM EDTA using 100 μM NADPH unless otherwise stated.
(§2) Initial inhibitor screens were conducted in 200 μl volumes in 96 well plates with 50 μM inhibitor, 100 μM NADPH, and 5 nM TGR in 0.1 M potassium phosphate (pH 7.4), 10 mM EDTA with a preincubation step of 15 min. […] All assays were done in triplicate.

S. mansoni TGR [2] = biological target: T1, S. mansoni TGR; type: biochemical; design: The entire TGR ORF plus the SECIS element was subcloned into pET-24a; made in house; host or cells: Escherichia coli BL21(DE3) with pSUABC; details: read-out: IC50 S. mansoni TGR, DTNB (TrxR activity)
Description: as §1, §2

Human TrxR = biological target: T2, Human TrxR (Homo sapiens, UniProt Q16881); details: read-out: IC50 Human TrxR, DTNB/Trx; cited from earlier work
T2 sequence (Q16881 1-499 isoform Q16881-5): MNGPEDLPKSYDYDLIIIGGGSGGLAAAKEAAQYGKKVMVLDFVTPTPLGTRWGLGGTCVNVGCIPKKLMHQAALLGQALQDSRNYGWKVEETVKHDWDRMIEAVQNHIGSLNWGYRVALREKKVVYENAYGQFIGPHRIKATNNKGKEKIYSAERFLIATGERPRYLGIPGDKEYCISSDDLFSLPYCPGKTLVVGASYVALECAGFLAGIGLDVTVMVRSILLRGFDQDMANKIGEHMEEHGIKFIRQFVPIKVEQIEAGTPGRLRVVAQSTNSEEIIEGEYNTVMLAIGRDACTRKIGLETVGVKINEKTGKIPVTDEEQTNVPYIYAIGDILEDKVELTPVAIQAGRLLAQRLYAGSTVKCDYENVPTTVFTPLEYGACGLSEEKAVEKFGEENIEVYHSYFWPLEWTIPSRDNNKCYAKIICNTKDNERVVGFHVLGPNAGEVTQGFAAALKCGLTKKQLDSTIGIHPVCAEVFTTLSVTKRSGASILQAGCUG

Human GR = biological target: T3, Human GR (Homo sapiens, UniProt P00390); details: read-out: IC50 Human GR, GSSG; cited from earlier work
T3 sequence (P00390 44-522): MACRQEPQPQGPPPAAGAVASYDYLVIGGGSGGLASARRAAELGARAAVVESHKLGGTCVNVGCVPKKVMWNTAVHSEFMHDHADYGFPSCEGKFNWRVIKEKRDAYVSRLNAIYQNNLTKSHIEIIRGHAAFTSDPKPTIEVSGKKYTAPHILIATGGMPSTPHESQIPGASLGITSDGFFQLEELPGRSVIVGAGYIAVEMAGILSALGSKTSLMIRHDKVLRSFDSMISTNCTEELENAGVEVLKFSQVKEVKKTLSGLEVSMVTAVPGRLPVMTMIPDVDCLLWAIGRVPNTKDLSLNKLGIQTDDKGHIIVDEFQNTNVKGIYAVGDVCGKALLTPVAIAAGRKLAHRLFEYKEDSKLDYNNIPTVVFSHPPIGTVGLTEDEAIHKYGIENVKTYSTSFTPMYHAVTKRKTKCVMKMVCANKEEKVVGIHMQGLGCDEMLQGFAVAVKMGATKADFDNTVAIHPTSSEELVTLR

S. mansoni TGR [3] = biological target: T1, S. mansoni TGR
Description: as §1, §2

S. mansoni TGR [4] = biological target: T1, S. mansoni TGR; type: biochemical; design: The entire TGR ORF plus the SECIS element was subcloned into pET-24a; made in house; host or cells: Escherichia coli BL21(DE3) with pSUABC; details: read-out: IC50 S. mansoni TGR, GSSG (GR activity)
Description: as §1, §2

S. mansoni TGR [5] = biological target: T1, S. mansoni TGR; test: IC50, Grx activity of TGR (HED assay), 15 min preincubation; type: biochemical; design: The entire TGR ORF plus the SECIS element was subcloned into pET-24a; made in house; host or cells: Escherichia coli BL21(DE3) with pSUABC; details: 8 mM HED plus 1 mM GSH, 15 min preincubation with 100 μM NADPH
Description: as §1, §2

S. mansoni TGR [6] = biological target: T1, S. mansoni TGR; test: Kinetic analysis of recombinant S. mansoni TGR with substrates; details: substrate of TGR (20 nM), 25 °C, pH 7.4, 100 μM NADPH; for Km / Vmax: ± SD
Description: Kinetic parameters were determined using Lineweaver–Burk plots using KaleidaGraph 4 (Synergy Software, http://www.synergy.com) least squares best fit of data and varying concentrations of one substrate while maintaining the concentration of other substrates. […] All assays were done in triplicate.

schistosomula = test: Schistosomula survival after RNAi and/or drug treatment; type: cell-based, Schistosoma mansoni; details: 2 μM praziquantel
Description: Cercariae were mechanically transformed to schistosomula by vortexing, and bodies were separated from tails by Percoll gradient centrifugation as described [13]. Immediately after transformation, TGR dsRNA or irrelevant dsRNA (each at 54 μg/ml) was added to ~500 schistosomula in 50 μl water followed by incubation at 37 °C for 30 min. After addition of 250 μl of RPMI-1640 medium, 300 U/ml penicillin, and 175 μg/ml streptomycin, parasites were incubated at 37 °C in 5% CO2 atmosphere for 4 d. Reduced O2 tension was obtained by filtering media and purging with 95% N2, 5% CO2 for 20 min before use. Parasites were cultured during the course of the experiment in the appropriate gaseous mix at 37 °C in a sealed modular incubator chamber (Billups-Rothenberg, http://www.brincubator.com) flushed with the same gaseous mix. On day 2 of the experiment, 50 μl of fresh media was added. Schistosomula were assessed daily for viability by microscopy. For each time point at least 1,500 parasites were scored as alive or dead in each experiment (three replicates of 500 each), and each experiment was repeated three times.
(B) Parasites were cultured in the presence of double-stranded TGR RNA (dashed lines) or of double-stranded irrelevant RNA (solid lines) in 20% O2 (♦) or 0% O2 (). […] (C) Combination of RNAi and drug treatments. Solid lines are irrelevant dsRNA treatments and dashed lines are dsTGR treatments; no additions (♦), 2 μM praziquantel () and 2 μM AF (▴). […] In each experiment for each time point at least 1,500 parasites were scored as alive or dead (three replicates of 500 parasites). The error bars represent the standard deviations of three independent experiments.

For `CN(C)c1ccc2nc3ccc(=[N+](C)C)cc-3sc2c1` [Methylene blue], the activity at 50 µM (S. mansoni TGR [1]) was 100%.

`CC1=CC(=O)c2c(O)cccc2C1=O` [Plumbagin] gave an activity at 50 µM (S. mansoni TGR [1]) of 15%.

In the case of `CC1=CC(=O)c2ccccc2C1=O` [Menadione], the activity at 50 µM (S. mansoni TGR [1]) is reported as 18%.

For `OC[C@H]1O[C@H]([S-])[C@H](O)[C@@H](O)[C@@H]1O.[Au+]` [Aurothioglucose], the IC50 (S. mansoni TGR [2]) is given as 0.07 µM, the IC50 (Human TrxR) is given as 0.065 µM and the IC50 (Human GR) is given as > 100 µM. The “Activity of Enzyme (% of Uninhibited Enzyme)” value (S. mansoni TGR [3]) was 0%, the IC50 (S. mansoni TGR [4]) was 3 µM and the IC50 (S. mansoni TGR [5]) was 0.4 µM.

In the case of `CC(C)(C)OO` [t-Butyl-OOH, tert-butyl hydroperoxide], the kcat (S. mansoni TGR [6]) is reported as 10.7 s⁻¹, the Km (S. mansoni TGR [6]) is reported as 48.6 mM and the Vmax (S. mansoni TGR [6]) is reported as 12.8 ± 0.33 µM/min.

`OO` [Compound H2O2, H2O2] showed a kcat (S. mansoni TGR [6]) of 9.4 s⁻¹, a Km (S. mansoni TGR [6]) of 68 mM and a Vmax (S. mansoni TGR [6]) of 11.3 ± 0.46 µM/min.

With `O=C(C1CCCCC1)N1CC(=O)N2CCc3ccccc3C2C1` (stereo not shown) [Praziquantel] the “Effect on schistosomula survival alone or in combination with RNAi” value (schistosomula) was “no effect”, the activity at 50 µM (S. mansoni TGR [1]) was 100% and the “Inhibition of TGR, in words” value (S. mansoni TGR [3]) was “no inhibitory activity”.

For `O=C1OC(C(O)CO)C(=O)C1=O` (stereo not shown) [DHAA, dehydroascorbic acid], the kcat (S. mansoni TGR [6]) was <0.25 s⁻¹ and the Vmax (S. mansoni TGR [6]) was <0.3 µM/min.

With `COC1=C(OC)C(=O)C(C/C=C(\C)CC/C=C(\C)CC/C=C(\C)CC/C=C(\C)CC/C=C(\C)CC/C=C(\C)CC/C=C(\C)CC/C=C(\C)CC/C=C(\C)CCC=C(C)C)=C(C)C1=O` [Ubiquinone] the kcat (S. mansoni TGR [6]) was <0.25 s⁻¹ and the Vmax (S. mansoni TGR [6]) was <0.3 µM/min.
